Experimental data from publication PMC6272711, “5-Methoxyquinoline Derivatives as a New Class of EZH2 Inhibitors” (Molecules, 2015).

Legend:
EZH2 = EZH2 (Homo sapiens, UniProt Q15910); test: AlphaLISA assay for EZH2; format: biochemical; conditions: enzymatic assay; means of at least three measurements
HCT15 = test: MTT cell growth inhibition, HCT15; format: cell-based, human; conditions: Homo sapiens, HCT-15, 96 h, read-out: IC50 HCT15, MTT, treatment 96 h; means of at least three measurements
MDA-MB-231 = test: MTT cell growth inhibition, MDA-MB-231; format: cell-based; conditions: Homo sapiens, MDA-MB-231, 96 h, read-out: IC50 MDA-MB-231

Sequence of EZH2 (Q15910 whole entry): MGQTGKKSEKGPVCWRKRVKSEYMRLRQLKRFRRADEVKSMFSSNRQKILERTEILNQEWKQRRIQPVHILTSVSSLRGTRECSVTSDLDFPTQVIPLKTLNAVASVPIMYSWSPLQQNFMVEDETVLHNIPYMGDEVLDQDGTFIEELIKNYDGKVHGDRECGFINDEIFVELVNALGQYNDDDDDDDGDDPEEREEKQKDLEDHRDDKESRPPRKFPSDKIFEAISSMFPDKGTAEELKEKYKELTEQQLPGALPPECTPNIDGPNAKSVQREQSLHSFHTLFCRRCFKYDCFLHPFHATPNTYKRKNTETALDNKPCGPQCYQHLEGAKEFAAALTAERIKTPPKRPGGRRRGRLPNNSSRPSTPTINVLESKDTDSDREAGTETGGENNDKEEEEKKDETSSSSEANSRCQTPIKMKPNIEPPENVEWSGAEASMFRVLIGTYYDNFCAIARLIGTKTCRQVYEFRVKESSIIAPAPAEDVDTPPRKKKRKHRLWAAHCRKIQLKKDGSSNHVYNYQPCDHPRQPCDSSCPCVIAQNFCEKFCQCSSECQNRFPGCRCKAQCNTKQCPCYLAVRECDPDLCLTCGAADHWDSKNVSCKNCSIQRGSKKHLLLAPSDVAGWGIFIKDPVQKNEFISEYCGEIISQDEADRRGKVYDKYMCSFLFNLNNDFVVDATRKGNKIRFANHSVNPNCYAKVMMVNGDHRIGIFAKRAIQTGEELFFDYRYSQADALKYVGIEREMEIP
Sequence of EZH2 (O75530 whole entry partner): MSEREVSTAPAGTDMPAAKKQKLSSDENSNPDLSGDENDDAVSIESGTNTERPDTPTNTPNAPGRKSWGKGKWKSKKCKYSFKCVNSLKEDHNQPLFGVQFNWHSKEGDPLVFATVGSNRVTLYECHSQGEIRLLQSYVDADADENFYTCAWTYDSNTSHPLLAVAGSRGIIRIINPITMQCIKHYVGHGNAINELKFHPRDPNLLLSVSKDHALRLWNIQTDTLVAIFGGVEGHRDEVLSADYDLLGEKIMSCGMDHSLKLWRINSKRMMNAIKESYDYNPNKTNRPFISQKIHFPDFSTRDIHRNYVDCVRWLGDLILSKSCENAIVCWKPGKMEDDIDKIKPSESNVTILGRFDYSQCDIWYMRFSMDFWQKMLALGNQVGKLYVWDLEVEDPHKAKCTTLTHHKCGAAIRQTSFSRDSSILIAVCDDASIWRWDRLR
Sequence of EZH2 (Q15022 whole entry partner): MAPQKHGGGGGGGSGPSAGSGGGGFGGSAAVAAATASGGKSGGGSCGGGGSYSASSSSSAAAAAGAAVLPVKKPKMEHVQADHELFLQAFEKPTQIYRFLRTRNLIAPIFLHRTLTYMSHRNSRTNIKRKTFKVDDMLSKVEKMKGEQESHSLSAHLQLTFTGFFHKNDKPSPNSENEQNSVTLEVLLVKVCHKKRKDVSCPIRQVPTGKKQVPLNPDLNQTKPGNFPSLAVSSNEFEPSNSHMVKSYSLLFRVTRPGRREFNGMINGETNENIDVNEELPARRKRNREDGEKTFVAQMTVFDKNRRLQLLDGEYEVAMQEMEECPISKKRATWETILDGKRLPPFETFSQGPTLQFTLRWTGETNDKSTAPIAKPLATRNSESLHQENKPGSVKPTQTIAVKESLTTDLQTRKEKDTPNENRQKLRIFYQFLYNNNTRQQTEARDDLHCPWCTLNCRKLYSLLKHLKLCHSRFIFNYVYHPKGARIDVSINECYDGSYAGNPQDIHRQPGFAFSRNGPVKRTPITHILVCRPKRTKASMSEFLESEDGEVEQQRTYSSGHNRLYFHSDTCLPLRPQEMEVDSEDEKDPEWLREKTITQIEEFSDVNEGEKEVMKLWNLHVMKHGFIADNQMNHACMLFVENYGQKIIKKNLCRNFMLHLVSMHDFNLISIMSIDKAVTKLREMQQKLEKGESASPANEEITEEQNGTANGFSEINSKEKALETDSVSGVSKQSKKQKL

SMILES	IC50 (EZH2) [µM]	IC50 (HCT15) [µM]	IC50 (MDA-MB-231) [µM]
COc1cccc2nc(N3CCCN(C)CC3)cc(Nc3cc(C(F)(F)F)cc(C(F)(F)F)c3)c12 [Compound 5v, N-(3,5-Bis(trifluoromethyl)phenyl)-5-methoxy-2-(4-methyl-1,4-diazepan-1-yl)quinolin-4-amine]	34.1 ± 2.22	10.2 ± 1.24	> 20
COc1cccc2nc(N3CCCN(C)CC3)cc(Nc3ccc(N(C)C)cc3)c12 [Compound 5p, N1-(5-Methoxy-2-(4-methyl-1,4-diazepan-1-yl)quinolin-4-yl)-N4,N4-dimethylbenzene-1,4-diamine]	27.6 ± 0.97	17.4 ± 1.54	16.2 ± 1.67
COc1cc2nc(N3CCCN(C)CC3)cc(NC3CCN(C)CC3)c2cc1OC [Compound 9g, 6,7-Dimethoxy-2-(4-methyl-1,4-diazepan-1-yl)-N-(1-methylpiperidin-4-yl)quinolin-4-amine]	17.8 ± 2.07	15.9 ± 1.85	> 20
COc1cccc2nc(Cl)cc(NC3CCN(Cc4ccccc4)CC3)c12 [Compound 1, N-(1-benzylpiperidin-4-yl)-2-chloro-5-methoxyquinolin-4-amine]	–	–	> 20
COc1ccc2nc(N3CCCN(C)CC3)cc(NC3CCN(C)CC3)c2c1OC [Compound 9d, 5,6-Dimethoxy-2-(4-methyl-1,4-diazepan-1-yl)-N-(1-methylpiperidin-4-yl)quinolin-4-amine]	5.6 ± 0.45	8.6 ± 2.2	12.4 ± 0.95
COc1cccc2nc(N3CCCCC3)cc(NC3CCN(Cc4ccccc4)CC3)c12 [Compound 5c, N-(1-Benzylpiperidin-4-yl)-5-methoxy-2-(piperidin-1-yl)quinolin-4-amine]	32 ± 2.78	7.8 ± 0.46	5.6 ± 0.14
COc1ccc(Nc2cc(N3CCCN(C)CC3)nc3cccc(OC)c23)c(C)c1 [Compound 5q, 5-Methoxy-N-(4-methoxy-2-methylphenyl)-2-(4-methyl-1,4-diazepan-1-yl)quinolin-4-amine]	34.8 ± 1.54	16.9 ± 0.36	14.5 ± 1.23
COc1cccc2nc(Nc3ccc([N+](=O)[O-])cc3)cc(NC3CCN(Cc4ccccc4)CC3)c12 [Compound 5e, N4-(1-Benzylpiperidin-4-yl)-5-methoxy-N2-(4-nitrophenyl)quinoline-2,4-diamine]	29.4 ± 1.01	17.8 ± 1.27	14.9 ± 2.2
COc1cccc2nc(N3CCN(C)CC3)cc(NC3CCN(Cc4ccccc4)CC3)c12 [Compound 5a, N-(1-Benzylpiperidin-4-yl)-5-methoxy-2-(4-methylpiperazin-1-yl)quinolin-4-amine]	16.4 ± 1.24	12.3 ± 0.95	11.9 ± 1.83
COc1ccccc1Nc1cc(N2CCCN(C)CC2)nc2cccc(OC)c12 [Compound 5o, 5-Methoxy-N-(2-methoxyphenyl)-2-(4-methyl-1,4-diazepan-1-yl)quinolin-4-amine]	17.5 ± 1.13	> 20	> 20
COc1cccc2nc(N3CCCN(C)CC3)cc(Nc3cncnc3)c12 [Compound 5t, 5-Methoxy-2-(4-methyl-1,4-diazepan-1-yl)-N-(pyrimidin-5-yl)quinolin-4-amine]	35.3 ± 1.61	> 20	> 20
COc1cccc2nc(N3CCCN(C)CC3)cc(NC3CCOCC3)c12 [Compound 5l, 5-Methoxy-2-(4-methyl-1,4-diazepan-1-yl)-N-(tetrahydro-2H-pyran-4-yl)quinolin-4-amine]	2.8 ± 0.21	15.5 ± 0.2	2.4 ± 0.49
COc1cccc2nc(N3CCCN(C)CC3)cc(NCCC(C)C)c12 [Compound 5h, N-Isopentyl-5-methoxy-2-(4-methyl-1,4-diazepan-1-yl)quinolin-4-amine]	11.5 ± 1.21	5.46 ± 0.85	4.31 ± 0.57
COc1cccc2nc(N3CCCN(C)CC3)cc(NC3CCN(Cc4ccccc4)CC3)c12 [Compound 5g, N-(1-Benzylpiperidin-4-yl)-5-methoxy-2-(4-methyl-1,4-diazepan-1-yl)quinolin-4-amine]	6.6 ± 0.49	3.78 ± 0.07	4.56 ± 0.24
COc1ccc2c(NC3CCN(C)CC3)cc(N3CCCN(C)CC3)nc2c1OC [Compound 9i, 7,8-Dimethoxy-2-(4-methyl-1,4-diazepan-1-yl)-N-(1-methylpiperidin-4-yl)quinolin-4-amine]	13.7 ± 1.32	> 20	> 20
COc1cccc2nc(N3CCCN(C)CC3)cc(Nc3ccc([N+](=O)[O-])cc3)c12 [Compound 5u, 5-Methoxy-2-(4-methyl-1,4-diazepan-1-yl)-N-(4-nitrophenyl)quinolin-4-amine]	26.2 ± 2.54	17.8 ± 1.27	14.9 ± 2.2
COc1cccc2nc(N3CCCN(C)CC3)cc(Nc3ccc(C)cc3)c12 [Compound 5r, 5-Methoxy-2-(4-methyl-1,4-diazepan-1-yl)-N-(p-tolyl)quinolin-4-amine]	39.7 ± 1.26	12.9 ± 0.89	> 20
COc1ccc(OC)c2c(NC3CCN(C)CC3)cc(N3CCCN(C)CC3)nc12 [Compound 9f, 5,8-Dimethoxy-2-(4-methyl-1,4-diazepan-1-yl)-N-(1-methylpiperidin-4-yl)quinolin-4-amine]	9.2 ± 0.51	15.5 ± 0.53	12.4 ± 0.49
COc1cccc2nc(Nc3ncccn3)cc(NC3CCN(Cc4ccccc4)CC3)c12 [Compound 5d, N4-(1-Benzylpiperidin-4-yl)-5-methoxy-N2-(pyrimidin-2-yl)quinoline-2,4-diamine]	17.5 ± 0.96	> 20	> 20
COc1cccc2nc(N3CCCN(C)CC3)cc(Nc3ccc(C(C)C)cc3)c12 [Compound 5n, N-(4-Isopropylphenyl)-5-methoxy-2-(4-methyl-1,4-diazepan-1-yl)quinolin-4-amine]	26.4 ± 2.04	14.6 ± 1.27	13.2 ± 2.53
COc1cccc2nc(N3CCCN(C)CC3)cc(NCCN3CCN(C)CC3)c12 [Compound 5j, 5-Methoxy-2-(4-methyl-1,4-diazepan-1-yl)-N-(2-(4-methylpiperazin-1-yl)ethyl)quinolin-4-amine]	4.2 ± 0.2	18.6 ± 2.2	12.4 ± 0.95
COc1cccc2nc(Nc3cc(C(F)(F)F)cc(C(F)(F)F)c3)cc(NC3CCN(Cc4ccccc4)CC3)c12 [Compound 5f, N4-(1-Benzylpiperidin-4-yl)-N2-(3,5-bis(trifluoromethyl)phenyl)-5-methoxyquinoline-2,4-diamine]	21.6 ± 2.35	10.2 ± 1.24	> 20
COc1cccc(Nc2cc(N3CCCN(C)CC3)nc3cccc(OC)c23)c1 [Compound 5s, 5-Methoxy-N-(3-methoxyphenyl)-2-(4-methyl-1,4-diazepan-1-yl)quinolin-4-amine]	16.8 ± 0.94	19.6 ± 0.56	16.9 ± 1.06
COc1cccc2nc(N3CCOCC3)cc(NC3CCN(Cc4ccccc4)CC3)c12 [Compound 5b, N-(1-Benzylpiperidin-4-yl)-5-methoxy-2-morpholinoquinolin-4-amine]	23 ± 2.06	15.6 ± 1.27	14.2 ± 1.97
COc1cc(OC)c2nc(N3CCCN(C)CC3)cc(NC3CCN(C)CC3)c2c1 [Compound 9h, 6,8-Dimethoxy-2-(4-methyl-1,4-diazepan-1-yl)-N-(1-methylpiperidin-4-yl)quinolin-4-amine]	14.9 ± 1.71	19.8 ± 1.27	13.2 ± 1.64
